Literature values as cited in US20070212431A1, “Cream for treatment of skin injured by the sun” (priority 2001, published 2007).

Key:
[1] = topical application to the skin
photodamaged skin = details: controlled studies (Q-10); open uncontrolled clinical study (lipoic acid)
[2] = applied to the skin in ethyl alcohol solution, after penetrating the horny layer

time until found in the dermis [1] [h]	share reaching the dermis [2] [%]	share reaching the living part of epidermis [2]	Compound	effect on photodamaged skin (photodamaged skin)
≤ 4			O=C(O)CCCCC1CCSS1 (racemic) [lipoic acid, d,l-α-lipoic acid]	shown to have an effect on photodamaged skin to a certain extent
	~2	about 20%	COC1=C(OC)C(=O)C(C/C=C(\C)CC/C=C(\C)CC/C=C(\C)CC/C=C(\C)CC/C=C(\C)CC/C=C(\C)CC/C=C(\C)CC/C=C(\C)CC/C=C(\C)CCC=C(C)C)=C(C)C1=O [Q-10, coenzyme Q-10]	to some extent has been shown to have an effect
